The values below come from ChEMBL document CHEMBL1201862, “PubChem BioAssay data set” (2004).

Activity calls are given as the source filed them. Cut-off read from the data, not from the text of the source, for most assays here: actives have a measured EC50 and inactives only a lower limit. Some results are limits rather than exact numbers.

As a reminder, the CC50 is the concentration that lowers cell viability or growth by half.

The test system of one test is H9c2. Nature of the test: cells. Format: functional, cell-based. The settings on record: Rattus norvegicus, H9c2, Myocardium.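 Note: confirmatory concentration-response retest of ultra-high-throughput screening hits for modulation of myocardial damage; cell death induced by hydrogen peroxide oxidative stress; compound pretreatment for 60 min then peroxide exposure for 2 h; potency is for protecting the cells against peroxide damage rather than for killing them.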
Test [1] is described as follows: NIH-3T3 fibroblast cytotoxicity, dose response, cytotoxicity control, cell-based, fluorescence, Alamar Blue, secondary assay (AID 2327).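 Note: NIH-3T3 mouse fibroblasts cultured with fluconazole at 8 µg/mL.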 Type of test: functional. A general note: Resazurin is reduced to fluorescent resorufin, in cell work by metabolically active cells.
A short description of test [2]: C. albicans growth with fluconazole, confirmation, fluorescence, retest (AID 2467). Format: functional, cell-based.
In another test the target is T1, Protein skinhead-1 (Caenorhabditis elegans, UniProt P34707).
T1 sequence (P34707 whole entry): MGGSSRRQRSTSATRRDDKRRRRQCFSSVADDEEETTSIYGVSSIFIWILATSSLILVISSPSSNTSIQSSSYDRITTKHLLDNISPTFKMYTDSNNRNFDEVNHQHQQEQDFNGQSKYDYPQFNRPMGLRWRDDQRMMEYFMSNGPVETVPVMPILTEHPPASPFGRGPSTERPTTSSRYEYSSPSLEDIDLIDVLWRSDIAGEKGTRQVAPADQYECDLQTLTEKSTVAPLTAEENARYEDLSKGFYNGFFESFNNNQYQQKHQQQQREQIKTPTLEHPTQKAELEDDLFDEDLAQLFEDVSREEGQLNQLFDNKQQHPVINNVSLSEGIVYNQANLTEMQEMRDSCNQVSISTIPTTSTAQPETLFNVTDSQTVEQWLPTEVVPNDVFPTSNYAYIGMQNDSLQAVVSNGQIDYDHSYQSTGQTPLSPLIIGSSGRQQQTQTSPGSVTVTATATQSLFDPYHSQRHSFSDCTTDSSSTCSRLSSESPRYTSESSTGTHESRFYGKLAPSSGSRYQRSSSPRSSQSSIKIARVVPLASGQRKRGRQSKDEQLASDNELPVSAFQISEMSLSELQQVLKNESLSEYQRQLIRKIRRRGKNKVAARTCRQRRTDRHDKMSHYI
Type of test: functional.

Test [3] has as its target T2, Corticotropin-releasing factor receptor 2/Corticotropin-releasing factor-binding protein (Homo sapiens, UniProt P24387+Q13324).
T2 sequence (Q13324 whole entry): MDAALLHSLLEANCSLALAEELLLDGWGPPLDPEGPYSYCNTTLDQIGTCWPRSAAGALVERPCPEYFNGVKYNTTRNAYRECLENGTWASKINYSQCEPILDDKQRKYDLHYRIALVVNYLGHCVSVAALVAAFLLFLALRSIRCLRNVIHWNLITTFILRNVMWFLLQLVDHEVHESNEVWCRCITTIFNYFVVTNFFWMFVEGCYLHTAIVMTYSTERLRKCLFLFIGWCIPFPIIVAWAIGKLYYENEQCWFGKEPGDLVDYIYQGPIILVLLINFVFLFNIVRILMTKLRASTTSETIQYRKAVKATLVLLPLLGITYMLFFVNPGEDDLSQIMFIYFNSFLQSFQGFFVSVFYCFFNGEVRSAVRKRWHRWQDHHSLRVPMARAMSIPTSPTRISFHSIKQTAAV
T2 sequence (P24387 whole entry): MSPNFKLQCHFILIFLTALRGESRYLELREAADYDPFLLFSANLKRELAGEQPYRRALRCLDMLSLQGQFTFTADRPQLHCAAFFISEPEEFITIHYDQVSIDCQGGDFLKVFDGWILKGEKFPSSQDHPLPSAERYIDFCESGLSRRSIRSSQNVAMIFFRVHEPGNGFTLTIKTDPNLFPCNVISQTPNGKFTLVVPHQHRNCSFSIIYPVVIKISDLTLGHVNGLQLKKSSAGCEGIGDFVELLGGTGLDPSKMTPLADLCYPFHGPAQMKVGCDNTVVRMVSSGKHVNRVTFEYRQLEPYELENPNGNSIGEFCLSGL
The test is described as follows: activators of CRF receptor 2 with binding protein – uHTS hits, confirmation (AID 602473). Type of test: functional. The settings on record: read-out: EC50_Mean.

Test [4] has as its target T2, Corticotropin-releasing factor receptor 2/Corticotropin-releasing factor-binding protein. The test is described as follows: Dose Response confirmation of uHTS hits for small molecule antagonists of the CRF-binding protein and CRF-R2 receptor complex. Format: functional. As to conditions: read-out: IC50_Mean.
Another test deals with H4. The test is described as follows: Luminescence Cell-Based Dose Response HTS to Identify Activators of 5'UTR Stem-Loop Driven Prion Protein mRNA Translation in H4 Neuroglioblastoma Cells. [Related pubchem assays: 1829 (Project Summary), 1814 (Primary HTS)]. Type of test: functional. The settings on record: Homo sapiens.
Test [5] in a line: Luminescence Cell-Based Dose Response HTS to Identify Activators of Luciferase Translation or Activity in H4 […] Cells. [Related pubchem assays: 1829 (Project Summary), 1814 (Primary HTS)]. Type of test: functional.
Test [6] can be described thus: Luminescence Cell-Based Dose Confirmation HTS to Identify Activators of 5'UTR Stem-Loop Driven Alpha-Synuclein mRNA Translation in H4 Neuroglioblastoma Cells. [Related pubchem assays: 1829 (Project Summary), 1814 (Primary HTS)]. Type of test: functional.
Test [7] is described as follows: HEp-2 cell cytotoxicity, dose response, cytotoxicity control for RSV inhibitor project, HTS (AID 2410). The settings on record: human respiratory syncytial virus. Type of test: functional.
Test [8] in a line: inhibitors of intracellular T. cruzi replication, confirmation, NIH3T3 host cells, beta-gal luminescence (AID 2044).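 Note: intracellular parasites grown in NIH/3T3 mouse fibroblasts as host cells; luminescent beta-galactosidase reporter signal from transgenic T. cruzi replicating inside host cells; inhibitors lower the luminescence signal.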 Format: functional, cell-based.
Test [9] is described as follows: cytotoxicity toward NIH3T3 fibroblasts, dose response, counter-screen, cell-based, ATP luminescence, mouse fibroblasts (AID 2010).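 Note: cells exposed to compound for about 90 hours before reading.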 Format: functional. (In general: Counterscreens check selectivity or assay interference.)

For `Cc1sc2nc(CSCC(=O)N(C)c3ccccc3)nc(O)c2c1C`, in the test with H9c2, the IC50 is > 79 µM (inactive).
Regarding `Cc1cc(C(=O)Nc2ccccc2C(=O)O)ccc1NC(=O)COc1cccc([N+](=O)[O-])c1`, the values for the EC50 in [1] and in test [2] were 22.8 µM (inconclusive) and 3.79 µM (active), respectively.
With `CCOC(=O)C1=C(NC(=O)c2ccc(S(=O)(=O)N(C)C)cc2)Nc2ccccc2N=C1CC`, the IC50 in the test with H9c2 was > 79 µM (inactive).
With `CC1CCN(c2oc(-c3ccccc3F)nc2C#N)CC1`, the IC50 on Protein skinhead-1 is > 100 µM (inactive).
For `CCOC(=O)C1(CC2CCCCO2)CCN(Cc2nccn2-c2ccc(OC)cc2)CC1` (stereo unspecified), in test [3], the EC50 was > 53 µM (inactive). The IC50 in [4] was > 47.1 µM (inactive).
`CCc1cc(C=C(Cl)Cl)oc(=O)c1C`: the EC50 in the test on H4 is > 120 µM (not active); in test [5] it was 8.12 µM (active); in test [6], 6.98 µM (active).
With `CC(=O)N1CCN(c2ccc(NC(=O)c3ccc(C(C)(C)C)cc3)cc2)CC1`, the EC50 in test [1] is > 160 µM (inactive); in test [2] it was 7.14 µM (active).
On to `Cc1ccc(NC(=O)c2cc(=O)c3ccccc3o2)cc1`, for which the EC50 was 21.6 µM (active) with H4, 17.9 µM (active) in test [5] and 1.12 µM (active) in test [6].
On to `CC(=O)Nc1cc(C(N)=O)c(Cl)cc1Cl`, for which the EC50 in test [3] was > 53 µM (inactive). Also, in test [4], the IC50 is > 47.1 µM (inactive).
Take `O=C(OCC(=O)c1cccs1)C1=COCCO1`: the EC50 in the test on H4 is 8.15 µM (active); in test [5], 9.36 µM (active); in [6] it was 15.4 µM (active).
With `Cc1ccc(C(=O)c2c3ccccc3[n+]([O-])n2[C@@H](C)C(N)=O)cc1`, the EC50 in the test with H4 was 38 µM (active); in [5], 11.2 µM (active); in test [6], 6.39 µM (active).
As to `Cn1c(=O)c2c(nc(NCc3cccnc3)n2Cc2cccc(C(F)(F)F)c2)n(C)c1=O`, the IC50 in the test with H9c2 was 14 µM (active).
As to `CC(C)(C)OC(=O)N1CCC(NC(=O)c2[nH]cnc2C(=O)NCC(=O)OCc2ccccc2)CC1`, the IC50 in the test with H9c2 is 47 µM (inactive).
Regarding `CCC(=O)N1CCN(c2ccccc2NC(=O)c2ccc(-c3cccc([N+](=O)[O-])c3)o2)CC1`, in the test on H9c2, the IC50 was > 79 µM (inactive).
Take `Cc1ccc(NC(=O)c2cccs2)cc1NC(=O)c1ccco1`: on Protein skinhead-1, the IC50 was > 100 µM (inactive).
As for `CC(=O)Nc1ccc(S(=O)(=O)N2CCC(NC(C)=O)(c3cccc(F)c3)CC2)cc1`, the EC50 in test [3] was > 53 µM (inactive). In addition, in test [4], the IC50 is > 47.1 µM (inactive).
As to `Cc1cccc(-n2c(SCc3cc(=O)n4ccsc4n3)nc3ccccc3c2=O)c1`, the CC50 in [7] is 39.5 µM (active). The IC50 in the test with H9c2 was > 79 µM (inactive).
Take `COc1ccc(CCC(=O)NCCS(=O)(=O)N2CCN(c3ccccc3OC)CC2)cc1`: the EC50 (in the test on H4; in test [5]; in test [6]) was > 120 µM (not active) in each case.
For the molecule `Cc1nn(C)c(=O)n1-c1ccc(OCc2ccccc2)cc1`, the values for the EC50 (with H4; in test [5]; in test [6]) were 12.9 µM (active), 49.9 µM (active) and 8.8 µM (active), respectively.
On to `O=C(COC(=O)c1ccc(Cl)nc1)Nc1ccc2ccccc2c1`, for which the IC50 on Protein skinhead-1 is > 100 µM (inactive).
Turning to `COc1ccccc1-n1c(C)cc(SC)c(C(C)=O)c1=S`, the EC50 in test [1] was > 150 µM (inactive); in test [2] it was 14 µM (active).
On to `O=C(NCCCN1CCCCC1)c1ccc2c(=O)n(CCc3ccccc3)c(=O)[nH]c2c1`, for which the EC50 in the test on H4 is 93.9 µM (active); in test [5] it was 12.2 µM (active); in test [6], > 120 µM (not active).
Turning to `Cc1ccc(NC(=O)/C(C#N)=C/c2cn(CC(=O)NCc3ccco3)c3ccccc23)cc1C`, the EC50 in [3] is > 53 µM (inactive). In test [4], the IC50 is > 47.1 µM (inactive).
Consider `CC(C)n1c(N2CCN(C(=O)Nc3ccc(Cl)cc3)CC2)nc2ccccc21`, for which the EC50 in [1] was 140 µM (active); in [2] it was > 38 µM (not active).
On to `Cc1ccccc1[S+]([O-])Cc1ccc(C(=O)N2CCN(C(=O)c3ccco3)CC2)o1` (stereo unspecified), for which, on Protein skinhead-1, the IC50 was > 100 µM (inactive).
For `COc1cc2nc(SCc3ccc(Cl)cc3Cl)n(Cc3cccs3)c(=N)c2cc1OC`, the EC50 in test [8] is 2.09 µM (active); in test [1] it was > 160 µM (inactive); in [9], > 60 µM (inconclusive); in [2] it was > 38 µM (not active).
Regarding `Clc1ccc(-c2[nH]nc3c2CCCC3)cc1`, the 50% cytotoxic concentration (CC50) in test [7] is 37.1 µM (active). The EC50 in the test on H4 was 54.4 µM (active); in [5], 16.2 µM (active); in [6], 10.4 µM (active).
Turning to `CN(CC(=O)NCc1ccc(F)cc1)S(=O)(=O)c1ccc(Br)s1`, the EC50 in test [3] was > 53 µM (inactive). For the same molecule, the IC50 in test [4] is > 47.1 µM (inactive).
For the molecule `O=C1c2ccccc2C(=O)c2c1ccc(C(=O)N1CCCCC1)c2NCCO`, at Protein skinhead-1, the IC50 is > 100 µM (inactive).
On the same count and under the same terms, as for `CCc1ccc(NC(=O)c2cc(-c3ccco3)on2)cc1`, the figure is > 100 µM (inactive).
`O=C(NCCO)c1c(O)c2cccc3c2n(c1=O)CC3`: the EC50 in [3] is > 53 µM (inactive). Further, the IC50 in [4] is > 47.1 µM (inactive).
As for `C=CCn1c(Oc2ccccc2)nc2c1c(=O)n(C)c(=O)n2C`, the EC50 in test [3] is > 53 µM (inactive).
As to `Cc1ccc2nc(SCC(=O)N3CCOCC3)[nH]c2c1`, the EC50 in test [3] was > 53 µM (inactive). The IC50 in [4] was > 47.1 µM (inactive).
As to `O=C1c2cc(Br)ccc2OC2C=CC=CC12` (stereo unspecified), at Protein skinhead-1, the IC50 was 81 µM (inactive).
Regarding `CCOc1ccccc1N(CC(=O)N1CCC(C(N)=O)CC1)S(=O)(=O)c1ccc(SC)cc1`, the EC50 in test [3] was > 53 µM (inactive). Further, the IC50 in test [4] is > 47.1 µM (inactive).
Turning to `CCc1nc2ccc(C(=O)NCc3cccs3)cn2c1N(C)Cc1nccs1`, the IC50 with H9c2 is 12.8 µM (active).
Still for that read-out and setting: as for `CC(C)(C)C(=O)Nc1ccc(C(=O)N/N=C/c2ccccc2OC(=O)c2ccccc2)cc1`, the figure is 31.5 µM (inactive); as for `COc1cc(C(=O)N/N=C/c2ccc(OC(=O)c3ccccc3)c(OC)c2)ccc1O`, > 79 µM (inactive).
